US8598177B2, “Imidazopyridazines as PAR1 inhibitors, production thereof, and use as medicaments” (Sanofi, priority 2008, dated 2013)
Counter-ions that a name gives are not always drawn.

Target: T1, PAR1 (Homo sapiens, UniProt P25116)
T1 construct: endogenous in cells; host or cells: washed platelets prepared from platelet-rich plasma of healthy volunteer donors
T1 sequence (P25116 22-425): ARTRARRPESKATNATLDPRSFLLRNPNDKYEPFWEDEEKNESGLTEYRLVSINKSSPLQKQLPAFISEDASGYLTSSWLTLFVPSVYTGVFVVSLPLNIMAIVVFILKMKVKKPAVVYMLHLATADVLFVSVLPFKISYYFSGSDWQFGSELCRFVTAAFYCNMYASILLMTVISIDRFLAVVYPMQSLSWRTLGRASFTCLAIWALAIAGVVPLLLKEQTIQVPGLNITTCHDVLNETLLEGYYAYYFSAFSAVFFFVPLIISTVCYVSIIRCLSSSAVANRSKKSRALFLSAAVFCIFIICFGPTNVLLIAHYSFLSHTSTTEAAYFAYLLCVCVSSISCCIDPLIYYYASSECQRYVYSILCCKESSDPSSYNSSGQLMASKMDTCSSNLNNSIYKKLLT
Assay: Inhibition of PAR1-mediated platelet aggregation induced by TRAP
Format: cell-based
Conditions: washed platelets from healthy volunteer donors, TRAP (70-100 μM solution) as agonist, 96-well format, AUC at 650 nm, 37° C., 20 minutes
Method: PAR1 Determination Method: Inhibition of PAR1-Mediated Platelet Aggregation
The pharmacological testing of the substances took place in platelet aggregation induced by TRAP (thrombin receptor-activating peptide) in 96-well format. For this purpose, blood was taken from healthy volunteer donors in 20 ml syringes containing 2 ml of 3.13% sodium citrate solution. After centrifugation at 150×g for 20 minutes, the platelet-rich plasma (PRP) was separated off and mixed with 1 μl of PGE1 solution (500 μg/ml in ethanol)/ml of PRP. Incubation at room temperature for 5 minutes was followed by centrifugation at 120×g for 15 minutes to remove the leukocytes. The leukocyte-free PRP was transferred in 5 ml portions into 15 ml PP tubes and centrifuged at 360×g for 15 minutes in order to pellet the platelets. The plasma was then decanted off and the platelet sediment from 5 ml of PRP was resuspended in 1 ml of Tyrode's (120 mM NaCl, 2.6 mM KCl, 12 mM NaHCO3, 0.39 mM NaH2PO4×H2O, 10 mM HEPES, 0.35% BSA, 5.5 mM glucose, pH 7.4) and adjusted with Tyrode's to a platelet count of 3×10^5/microliter (4). 13 ml of this cell suspension were then mixed with 866 μL of 10 mM CaCl2 solution, and 120 μL thereof were pipetted into each well of a 96-well plate containing 15 μL of the substance to be tested. After incubation at room temperature in the dark for 30 minutes, 15 μL of a TRAP solution (70-100 μM) were added as agonist, and kinetics were recorded at 650 nm in a SpectraMax 340 at 37° C. for 20 minutes while shaking. The areas under the curves of negative control (Tyrode's/DMSO) and positive control (15 μl of agonist/DMSO) were calculated and the difference was fixed as the 100% value. The substances to be tested were pipetted as serial dilutions in duplicate determination, the AUC was likewise determined for each substance concentration, and the % inhibition of the AUC compared with the control was calculated. On the basis of the % inhibition, the IC50 was calculated by nonlinear regression analysis according to the 4-parameter equation.

IC50 [nM] | Compound
180 | COc1nn2c(=N)n(CC(=O)c3cc(N4CCOCC4)c(OC)c(C(C)(C)C)c3)cc2cc1OCC(F)(F)F [Example 4, 1-(3-tert-Butyl-4-methoxy-5-morpholin-4-ylphenyl)-2-[7-imino-2-methoxy-3-(2,2,2-trifluoroethoxy)imidazo[1,5-b]pyridazin-6-yl]ethanone as trifluoroacetic acid salt]
5 | CCOc1cc2cn(CC(=O)c3cc(NC(C)=O)cc(S(F)(F)(F)(F)F)c3)c(=N)n2nc1OCC [Example 1, trifluoroacetic acid salt]
4 | CCOc1cc2cn(CC(=O)c3cc(N4CCOCC4)c(OC)c(C(C)(C)C)c3)c(=N)n2nc1OCC [Example 3, 1-(3-tert-Butyl-4-methoxy-5-morpholin-4-ylphenyl)-2-(2,3-diethoxy-7-iminoimidazo-[1,5-b]pyridazin-6-yl)ethanone as trifluoroacetic acid salt]
